{
  "source": "patent US20130184321A1",
  "about": "“Model Mouse of Attention Deficit Hyperactivity Disorder, Method for Investigating Effects for Preventing and Alleviating Attention Disorder using the Model Mouse, and Method for Treating Attention Disorder by Suppressing T-Type Calcium Channel” (KOREA ADVANCED INSTITUTE OF SCIENCE AND TECHNOLOGY, priority 2010, published 2013)",
  "tested_on": "ADHD animal model implanted with cobalt wire",
  "experiment": "Changes in brain wave (EEG spikes) of ADHD animal model by T-type calcium channel blocker",
  "type": "in vivo, mouse",
  "details": "cobalt wire implanted 7~9 days earlier, brain wave observed for one hour; for spikes observed in the frontal lobe, after vs before treatment: P<0.05",
  "procedure": "Particularly, to construct the ADHD mouse model, 0.2% avertin in 20 mg/ml of tribromoethanol was administered to the mouse by intraperitoneal injection (i.p.) to anesthetize it. The head of the mouse (B6 mouse at 10˜20 weeks) was fixed on stereotaxic (David Kopf Instruments, Germany) and then cobalt wire (Alfa Aesar) was inserted therein by using holder, a part of stereotaxic. Cobalt wire (Alfa Aesar) of 500 μm in the diameter was inserted radially (vertical direction to the cortical surface) in the location of anteroposteriorally 2.6 mm, laterally 1.8 mm, and ventrally 1.3 mm in the right dorsolateral frontal lobe.\nFor the record of EEG, epidural electrode was inserted in the right frontal lobe where the cobalt wire was inserted. Other electrodes were inserted in the left frontal lobe and temporal lobe. Particularly, the location for the insertion in the right frontal lobe was anteroposteriorally 2.8 mm and laterally 0.8 mm and the location in the left frontal lobe was anteroposteriorally 2.8 mm and laterally 0.8 mm. […]\nAfter three days of recovery, EEG signals and video images were recorded for 30 days. […]\nParticularly, 150 mg/kg of ethosuximide (Sigma-Aldrich, USA) was administered in the abdominal cavity of the ADHD animal model implanted with cobalt wire 7˜9 days earlier, followed by observation of the changes in brain wave for one hour. The mice were placed in the test room having square bottom where they could move freely and brain waves were being recorded from 30 minutes before the ethosuximide administration. The number of spikes was measured before and after the treatment of ethosuximide.\n60 mg/kg of zonisamide (Sigma-Aldrich, USA) and 100 mg/kg of phyenytoin (Sigma-Aldrich, USA) were administered respectively in the abdominal cavity of the ADHD animal model implanted with cobalt wire 7˜9 days earlier, followed by observation of the changes in brain wave for one hour. The mice were placed in the test room having square bottom where they could move freely and brain waves were being recorded from 30 minutes before the ethosuximide administration. […]",
  "data": [
    {"molecule": "CCC1(C)CC(=O)NC1=O", "note": "(stereo not drawn) [ethosuximide]", "values": [
      {"measurement": "number of spikes observed in the frontal lobe, after vs before treatment", "setting": "150 mg/kg in the abdominal cavity", "value": "significantly reduced"}
    ]},
    {"molecule": "O=C1NC(=O)C(c2ccccc2)(c2ccccc2)N1", "note": "[phyenytoin]", "values": [
      {"measurement": "spikes observed in the frontal lobe, after vs before treatment", "setting": "100 mg/kg in the abdominal cavity", "value": "significantly reduced"}
    ]},
    {"molecule": "NS(=O)(=O)Cc1noc2ccccc12", "note": "[zonisamide]", "values": [
      {"measurement": "spikes observed in the frontal lobe, after vs before treatment", "setting": "60 mg/kg in the abdominal cavity", "value": "significantly reduced"}
    ]}
  ]
}
